Laboratory results from patent US6541463B1, “Inhibitors of type 5 and type 3 17β-hydroxysteroid dehydrogenase and methods for their use” (Endorecherche, Inc., priority 1998, dated 2003).

Columns and labels:
[1] = test system: progesterone receptor; assay: Progesterone receptor assay: inhibition of [3H]R5020 binding, uterine cytosol; parameters: species or system rat
Description: The manner in which the percentage of inhibition is determined is described in “Other Tests; E-Progesterone Receptor Assay”. Lower numbers are desirable.
[17α-methyl-^3H]-promegestone (R5020) (84 Ci/mmol) and the corresponding unlabeled compound were purchased from New England Nuclear (Lachine, Québec, Canada). All other chemicals were of analytical grade.
(§1) Stock solutions of the unlabeled steroids were kept at 4° C. in ethanol. The desired steroid solutions were then prepared by appropriate dilution in buffer B (10 mM Tris-HCl, 1.5 mM EDTA, 10 mM α-monothioglycerol, pH 7.4) containing 30% ethanol.
Female Sprague-Dawley rats weighing 200-300 g were obtained from Charles-River Inc. (St-Constant, Québec, Canada). The rats were gonadectomized under general anesthesia (Isoflurane) and killed by cervical dislocation 24 hours later. The uteri are rapidly removed, dissected free from adhering tissue and frozen on dry-ice. Tissues were kept at −80° C. until use.
All procedures were performed at 4° C. Tissues were pulverized frozen in dry ice with a Thermovac pulverizer. The samples were then homogenized in 10 vol (w/v) of buffer A (25 mM Tris-HCl, 1.5 mM EDTA, 10 mM α-monothioglycerol, 10% glycerol, 10 mM sodium molybdate, pH 7.4) using a Polytron PT-10 homogenizer (Brinkmann Instruments, Canada) at a setting of 5 for two periods of 10 sec, with intervals of 10 sec for cooling. The homogenate was then centrifuged at 105,000×g for 90 min. The supernatant was used immediately for assay.
Progesterone binding was measured using the dextran-coated charcoal adsorption technique. […] Each concentration was done in triplicate. Assay was ended with 300 μl of DCC (1% Norit A and 0.1% Dextran T-70 in Buffer B). After 10 min of incubation, tubes were centrifuged at 2,000×g for 10 min. and decanted in vials with 6 ml of BCS liquid scintillation (New England Nuclear, Dupont). The radioactivity was measured in a Beckman counter at a counting efficiency of 35%.

[2] = target: T1, glucocorticoid receptor (Rattus norvegicus, UniProt P06536); assay: Glucocorticoid receptor assay: inhibition of [3H]-dexamethasone binding, liver cytosol; details: for inhibition at 1 µM / inhibition at 0.01 µM / % Inhibition Glucocorticold Receptor E^−6 / % Inhibition Glucocorticold Receptor E^−8: Table 4′; for inhibition at 1 µM: read-out: % Inhibition Glucocorticold Receptor E^−6; for inhibition at 0.01 µM: read-out: % Inhibition Glucocorticold Receptor E^−8
T1 construct: from tissue; host or cells: liver cytosol of male Sprague-Dawley rats
T1 sequence (P06536 1-795): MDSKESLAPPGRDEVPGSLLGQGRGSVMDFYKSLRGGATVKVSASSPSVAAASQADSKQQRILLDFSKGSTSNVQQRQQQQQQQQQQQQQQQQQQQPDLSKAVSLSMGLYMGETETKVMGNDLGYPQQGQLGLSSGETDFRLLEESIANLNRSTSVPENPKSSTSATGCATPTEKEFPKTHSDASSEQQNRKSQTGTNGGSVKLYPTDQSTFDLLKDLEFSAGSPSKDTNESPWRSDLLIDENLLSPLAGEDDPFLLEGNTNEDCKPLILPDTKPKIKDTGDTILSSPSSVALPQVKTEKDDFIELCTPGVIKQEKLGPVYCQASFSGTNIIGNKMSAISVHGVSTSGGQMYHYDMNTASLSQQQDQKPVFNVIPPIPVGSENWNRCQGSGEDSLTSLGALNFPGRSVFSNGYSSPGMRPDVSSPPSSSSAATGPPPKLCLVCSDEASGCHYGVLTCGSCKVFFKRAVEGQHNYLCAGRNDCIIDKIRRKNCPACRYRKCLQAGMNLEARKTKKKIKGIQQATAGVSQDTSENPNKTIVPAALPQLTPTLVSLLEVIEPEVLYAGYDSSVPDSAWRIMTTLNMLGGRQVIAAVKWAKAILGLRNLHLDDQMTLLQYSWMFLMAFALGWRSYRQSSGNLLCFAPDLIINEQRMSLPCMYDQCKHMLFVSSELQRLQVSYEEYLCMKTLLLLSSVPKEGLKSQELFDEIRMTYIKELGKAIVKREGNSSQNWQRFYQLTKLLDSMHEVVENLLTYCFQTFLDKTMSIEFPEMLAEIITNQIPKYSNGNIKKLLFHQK
Description: The manner in which the percentage of inhibition is determined is described in “Other Tests; F-Glucocorticoid Receptor Assay”.
[6,7-^3H(N)]-Dexamethasone (39 Ci/mmol) was purchased from New England Nuclear (Lachine, Québec, Canada) while unlabeled dexametasone was obtained from Steraloids (Wilton, N.H.). All other chemicals were of analytical grade.
as §1
Male Sprague-Dawley rats weighing 200-300 g were obtained from Charles-River Inc. (St-Constant, Québec, Canada). The rats were killed by cervical dislocation and the liver were rapidly removed, dissected free from adhering tissue and frozen on dry-ice. Tissues were kept at −80° C. until use.
All procedures were performed at 4° C. Tissues were eminced and homogenized in 10 vol (w/v) of buffer A (25 mM Tris-HCl, 1.5 mM EDTA, 10 mM α-monothioglycerol, 10% glycerol, 10 mM sodium molybdate, pH 7.4) using a Polytron PT-10 homogenizer (Brinkmann Instruments, Canada) at a setting of 5 for two periods of 10 sec, with intervals of 10 sec for cooling. The homogenate was then centrifuged at 105,000×g for 90 min. The supernatant was used immediately for assay.
Glucocorticoid binding was measured using the dextran-coated charcoal adsorption technique. Incubations were performed at 0-4° C. for 16-18 h using 100 μl of cytosol, 100 μl of [^3H]-Dexamethasone (5 nM final) and 100 μl of unlabeled compounds at the indicated concentrations. Each concentration was done in triplicate. Assay was ended with 300 μl of DCC (2.5% Norit A and 0.25% Dextran T-70 in Buffer B). After 10 min of incubation, tubes were centrifuged at 2,000×g for 10 min. and decanted in vials with 6 ml of BCS liquid scintillation (New England Nuclear, Dupont). The radioactivity was measured in a Beckman counter at a counting efficiency of 35%.

| SMILES | % Inhibition Progesterone Receptor E^−6 ([1]; Table 4′, E^−6) | % Inhibition Progesterone Receptor E^−8 ([1]; Table 4′, E^−8) | inhibition at 1 µM ([2]; E^−6) | inhibition at 0.01 µM ([2]; E^−8) | further results |
| --- | --- | --- | --- | --- | --- |
| CCOc1ccc2c(c1)CCC1C2CC[C@@]2(C)C1CC[C@@]21CCC(C)(C)C(=O)O1 (stereo partly drawn) [EM-1369, 3-Ethoxy-1,3,5(10)-estratrien-17(R)-spiro-2′-(5′,5′-dimethyl-6′-oxo)-tetrahydropyran] | 3% | 1% | 2% | 1% |  |
| CCCCN(C)C(=O)[C@@]1(OC(C)=O)CCC2C3C=C(C)C4=CC(=O)CC[C@]4(C)C3CC[C@@]21C (some centres unmarked) [EM-1165] |  |  |  |  | % Inhibition Progesterone Receptor ([1]; E^−6): 7%; % Inhibition Progesterone Receptor ([1]; E^−8): 0%; % Inhibition Glucocorticoid Receptor ([2]; E^−6): 26%; % Inhibition Glucocorticoid Receptor ([2]; E^−8): 0% |
| CN(C)C(=O)c1ccc2c(c1)CCC1C2CCC2(C)C1CCC21CCC(C)(C)C(=O)O1 (centres unmarked) [EM-1403] | 0% | 0% | 0% | 0% |  |
| CCC[C@@H]1CC2C3C=CC4=CC(=O)CC[C@]4(C)C3CC[C@]2(C)C1=O (some centres unmarked) [EM-1097] |  |  |  |  | % Inhibition Progesterone Receptor E^−6 ([1]; E^−6): 0%; % Inhibition Progesterone Receptor E^−8 ([1]; E^−8): 2%; % Inhibition Glucocorticoid Receptor E^−6 ([2]; E^−6): 0%; % Inhibition Glucocorticoid Receptor E^−8 ([2]; E^−8): 0% |
| COCCOc1cc2c(cc1C(F)(F)F)[C@H]1CC[C@@]3(C)[C@@H](CC[C@@]34CCC(C)(C)C(=O)O4)[C@@H]1CC2 [EM-1438, 3-(2′-Methoxyethoxy)-2-trifluoromethyl-1,3,5(10)-estratrien-17(R)-spiro-2′-(5′,5′-dimethyl-6′-oxo)tetrahydropyran] | 0% | 0% |  |  | % Inhibition Glucocorticold Receptor E^−6 ([2]; E^−6): 0%; % Inhibition Glucocorticold Receptor E^−8 ([2]; E^−8): 1% |
| COCCOc1ccc2c(c1)CCC1C2CCC2(C)C1CCC21CCC(C)(C)C(=O)O1 [EM-1368-CS, 3-Methoxyethoxy-1,3,5(10)-estratrien-17(R)-spiro-2′-(5′,5′-dimethyl-6′-oxo)-tetrahydropyran] | 3% | 0% | 3% | 3% |  |
| CC1(C)CC[C@@]2(CCC3C4CCc5cc(C(N)=O)ccc5C4CCC32C)OC1=O (some centres unmarked) [EM-1404] | 0% | 0% | 0% | 0% |  |
| CC(=O)O[C@]1(C(=O)N(C)C)CCC2C3C=C(C)C4=CC(=O)CC[C@]4(C)C3CC[C@@]21C (some centres unmarked) [EM-1159] |  |  |  |  | % Inhibition Progesterone Receptor ([1]; E^−6): 4%; % Inhibition Progesterone Receptor ([1]; E^−8): 2%; % Inhibition Glucocorticoid Receptor ([2]; E^−6): 59%; % Inhibition Glucocorticoid Receptor ([2]; E^−8): 8% |
| CC1(C)CC[C@@]2(CC[C@H]3[C@@H]4CCc5c(cc(Br)c(O)c5Br)[C@H]4CC[C@@]32C)OC1=O [EM-1382-CS] | 0% | 2% |  |  | % Inhibition Glucocorticold Receptor E^−6 ([2]; E^−6): 4%; % Inhibition Glucocorticold Receptor E^−8 ([2]; E^−8): 2% |
| COc1c(Br)cc2c(c1Br)CCC1C2CCC2(C)C1CCC21CCC(C)(C)C(=O)O1 (centres unmarked) [EM-1385-CS] | 2% | 2% | 5% | 0% |  |
| CC12C=CC(=O)C=C1C=CC1C2CCC2(C)C(=O)C3(CCCCC3)CC12 (centres unmarked) [CS-204] |  |  |  |  | % Inhibition Progesterone Receptor E^−6 ([1]; E^−6): 2%; % Inhibition Progesterone Receptor E^−8 ([1]; E^−8): 0%; % Inhibition Glucocorticoid Receptor E^−6 ([2]; E^−6): 0%; % Inhibition Glucocorticoid Receptor E^−8 ([2]; E^−8): 0% |
| COCCOc1cc2c(cc1C(N)=O)C1CC[C@@]3(C)C(CC[C@@]34CCC(C)(C)C(=O)O4)C1CC2 (stereo partly drawn) [EM-1424, 2-Carbamoyl-3-(2″-methoxyethyloxy)-1,3,5(10)-estratrien 17(R)-spiro-2′-(5′,5′-dimethyl-6′-oxo)tetrahydropyran] | 0% | 1% | 0% | 0% |  |
| CC1(C)CC[C@@]2(CCC3C4CCc5cc6oncc6cc5C4CC[C@@]32C)OC1=O (stereo partly drawn) [EM-1407-CS, 1,3,5(10)-estratrien-(2,3-oximino)-17(R)-spiro-2′-(5′,5′-dimethyl-6′-oxo)tetrahydropyran] | 3% | 0% | 0% | 0% |  |
| CC1(C)CCC2(CCC3C4CCc5c(cc(Cl)c(OS(C)(=O)=O)c5Cl)C4CCC32C)OC1=O (centres unmarked) [EM-1392-CS] | 2% | 2% | 8% | 0% |  |
| COc1ccc2c(c1)C(=O)CC1C3CCC4(CCC(C)(C)C(=O)O4)C3(C)CCC21O (centres unmarked) [EM-1386] | 0% | 0% | 0% | 3% |  |
| CC1CCC2(CCC3C4CCc5ccccc5C4CCC32C)OC1=O (centres unmarked) [EM-1025] | 4% | 0% | 0% | 0% |  |
| CC1CCC2(CCC3C4CCc5cc(O)c([N+](=O)[O-])cc5C4CCC32C)OC1=O [EM-1131, 2-Nitro-1,3,5(10)-estratrien-3-ol-17(R)-spiro-2′-(5′-methyl-6′-oxo)tetrahydropyran] | 10% | 2% | 0% | 0% |  |
